Data: patent publication US10934255B2, “Nrf and HIF activators/HDAC inhibitors and therapeutic methods using the same” (THE BOARD OF TRUSTEES OF THE UNIVERSITY OF ILLINOIS, priority 2017, dated 2021)

Tests used:
Human HDAC6 = biological target: T1, Human HDAC6 (Homo sapiens, UniProt Q9UBN7); experiment: HDAC6 inhibition assay (fluorogenic p53 peptide substrate); type: biochemical; conditions: Table 1; performed by Reaction Biology Corporation; read-out: HDAC isoform IC50 (nM) 6
T1 construct: Full length with N-terminal GST tag, MW=159 kDa; GST (N); host or cells: Sf9 insect cells (baculovirus)
T1 sequence (Q9UBN7 1-1215): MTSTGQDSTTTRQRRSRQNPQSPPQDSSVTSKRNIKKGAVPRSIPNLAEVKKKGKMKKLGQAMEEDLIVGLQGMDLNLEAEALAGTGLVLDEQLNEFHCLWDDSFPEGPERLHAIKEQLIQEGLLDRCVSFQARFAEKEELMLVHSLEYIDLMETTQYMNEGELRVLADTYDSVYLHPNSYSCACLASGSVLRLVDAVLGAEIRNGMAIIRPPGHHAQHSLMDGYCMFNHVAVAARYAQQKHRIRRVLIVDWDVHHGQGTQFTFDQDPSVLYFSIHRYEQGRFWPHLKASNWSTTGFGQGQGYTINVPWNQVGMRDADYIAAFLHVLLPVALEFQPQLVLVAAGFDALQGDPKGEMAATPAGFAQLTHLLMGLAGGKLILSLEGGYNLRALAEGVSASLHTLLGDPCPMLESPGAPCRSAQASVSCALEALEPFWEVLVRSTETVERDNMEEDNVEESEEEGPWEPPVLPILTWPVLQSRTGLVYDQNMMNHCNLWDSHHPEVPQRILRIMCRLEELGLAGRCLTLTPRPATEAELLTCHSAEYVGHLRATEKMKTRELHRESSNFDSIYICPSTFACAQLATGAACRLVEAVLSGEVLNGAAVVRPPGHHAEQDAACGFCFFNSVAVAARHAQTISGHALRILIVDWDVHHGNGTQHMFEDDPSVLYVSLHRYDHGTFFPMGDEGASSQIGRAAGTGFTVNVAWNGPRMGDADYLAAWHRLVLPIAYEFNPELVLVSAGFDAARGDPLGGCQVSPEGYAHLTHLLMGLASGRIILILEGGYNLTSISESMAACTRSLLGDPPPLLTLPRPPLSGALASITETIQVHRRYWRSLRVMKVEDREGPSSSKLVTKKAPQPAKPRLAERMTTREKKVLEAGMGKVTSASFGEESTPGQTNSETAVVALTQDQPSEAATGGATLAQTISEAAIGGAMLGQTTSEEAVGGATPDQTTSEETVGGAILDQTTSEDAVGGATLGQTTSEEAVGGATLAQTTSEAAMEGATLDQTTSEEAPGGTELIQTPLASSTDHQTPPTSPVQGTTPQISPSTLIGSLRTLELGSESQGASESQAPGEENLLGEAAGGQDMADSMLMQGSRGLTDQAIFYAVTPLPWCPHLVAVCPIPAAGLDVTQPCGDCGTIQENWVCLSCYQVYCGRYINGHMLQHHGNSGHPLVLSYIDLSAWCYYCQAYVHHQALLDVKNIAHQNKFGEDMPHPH
Method: (§1) The HDAC1, 2, 4, 5, 6, 7, 8, 9, 10, and 11 assays used isolated recombinant human protein; HDAC3/NcoR2 complex was used for the HDAC3 assay. Substrate for HDAC1, 2, 3, 6, 10, and 11 assays is a fluorogenic peptide from p53 residues 379-382 (RHKKAc); substrate for HDAC8 is fluorogenic diacyl peptide based on residues 379-382 of p53 (RHKAcKAc). Acetyl-Lys(trifluoroacetyl)-AMC substrate was used for HDAC4, 5, 7, and 9 assays. Compounds were dissolved in DMSO and tested in 10-dose IC50 mode with 3-fold serial dilution starting at 30 μM. Control Compound Trichostatin A (TSA) was tested in a 10-dose IC50 with 3-fold serial dilution starting at 5 μM. IC50 values were extracted by curve-fitting the dose/response slopes. Assays were performed in duplicate and IC50 values are an average of data from both experiments.
Human HDAC6 (GenBank Accession No. BC069243): Full length with N-terminal GST tag, MW=159 kDa, expressed by baculovirus expression system in Sf9 cells. Enzyme is in 50 mM Tris-HCl, pH 8.0, 138 mM NaCl, 20 mM glutathione, and 10% glycerol, and stable for >6 months at −80° C. Purity is >90% by SDS-PAGE. Specific Activity is 50 U/μg, where one U=1 pmol/min under assay condition of 25 mM Tris/Cl, pH8.0, 137 mM NaCl, 2.7 mM KCl, 1 mM MgCl2, and 0.1 mg/ml BSA, 30 μM HDAC substrate, and 5 ng/μl HDAC6, incubation for 60 min at 30° C.
(§2) Substrate for HDAC1 and HDAC6: Acetylated peptide substrate for HDAC, based on residues 379-382 of p53 (Arg-His-Lys-Lys(Ac)), a site of regulatory acetylation by the p300 and CBP acetyltransferases (lysines 381, 382)1-6, is the best for HDAC from among a panel of substrates patterned on p53, histone H3 and histone H4 acetylation sites7.
(§3) Reaction Buffer: 50 mM Tris-HCl, pH 8.0, 137 mM NaCl, 2.7 mM KCl, 1 mM MgCl2, 1 mg/ml BSA.
HDAC6: 12.6 nM HDAC6 and 50 μM HDAC substrate are in the reaction buffer and 1% DMSO final. Incubate for 2 hours at 30° C.
(§4) All IC50 values are automatically calculated using the GraphPad Prism version 5 and Equation of Sigmoidal dose-response (variable slope): Y=Bottom+(Top−Bottom)/(1+10^((Log EC50−X)*HillSlope)), where X is the logarithm of concentration, Y is the response, Y starts at Bottom and goes to Top with a sigmoid shape. In most cases, “Bottom” is set 0, and “Top” is set “less than 120%”. This is identical to the “four parameter logistic equation”. IC50 curves also are drawn using the GraphPad Prism, and IC50 values and Hill slopes are provided.
(§5) HDAC Activity Assays: HDAC assay is performed using fluorescently-labeled acetylated substrate, which comprises an acetylated lysine side chain. After incubation with HDAC, deacetylation of the substrate sensitizes the substrate such that, in a second step, treatment with the detection enzyme produces a fluorophore. HDACs 1 and 6 were expressed as full length fusion proteins. Purified proteins were incubated with 50 μM fluorescently-labeled acetylated peptide substrate and test compound for 2 hours at RT in HDAC assay buffer containing 50 mM Tris-HCl (pH 8.0), 137 mM NaCl, 2.7 mM KCl, 1 mM MgCl2, 1% DMSO, and 1% BSA.
(§6) Reactions were terminated by the addition of the Developer after 2 hours, and the development of fluorescence signal, which was relative to the amount of deacetylated peptide, was monitored by time-course measurement of EnVision (PerkinElmer). The HDAC activity was estimated from the slope of time-course measurement of the fluorescence intensity. The slope of no-enzyme control (substrate alone) was served as background, and % Enzyme activity was calculated using background-subtracted slope of no inhibitor control (DMSO) as 100% activity.

Nrf2 = Nrf2 activation, Neh2-luc reporter assay; type: cell-based; conditions: measured at 10 μM
Method: (§7) The present compounds were evaluated for an ability to activate Nrf2 and HIF-1α. Table 1 summarizes Nrf2 activation data obtained in Neh2-luc reporter assay; and HIF1 activation measured in ODD reporter assay.

HIF-1α = experiment: HIF1 activation, ODD reporter assay; type: cell-based; conditions: measured at 10 μM
Method: as §7

Human HDAC1 = biological target: T2, Human HDAC1 (Homo sapiens, UniProt Q13547); experiment: HDAC1 inhibition assay (fluorogenic p53 peptide substrate); type: biochemical; conditions: Table 1; performed by Reaction Biology Corporation; read-out: HDAC isoform IC50 (nM) 1
T2 construct: Full length with C-terminal GST tag, MW=79.9 kDa; GST (C); host or cells: Sf9 insect cells (baculovirus)
Method: as §1
Human HDAC1 (GenBank Accession No. NM_004964): Full length with C-terminal GST tag, MW=79.9 kDa, expressed by baculovirus expression system in Sf9 cells. Enzyme is in 50 mM Tris-HCl, pH 8.0, 138 mM NaCl, 20 mM glutathione, and 10% glycerol, and stable for >6 months at −80° C. Purity is >10% by SDS-PAGE. Specific Activity is 20 U/μg, where one U=1 pmol/min under assay condition of 25 mM Tris/Cl, pH8.0, 137 mM NaCl, 2.7 mM KCl, 1 mM MgCl2, 0.1 mg/ml BSA, 100 μM HDAC substrate, and 13.2 ng/μl HDAC1, incubation for 30 min at 30° C.
as §2, §3
HDAC1: 75 nM HDAC1 and 50 μM HDAC substrate are in the reaction buffer and 1% DMSO final. Incubate for 2 hours at 30° C.
as §4, §5, §6

T2 sequence (Q13547 whole entry, canonical isoform): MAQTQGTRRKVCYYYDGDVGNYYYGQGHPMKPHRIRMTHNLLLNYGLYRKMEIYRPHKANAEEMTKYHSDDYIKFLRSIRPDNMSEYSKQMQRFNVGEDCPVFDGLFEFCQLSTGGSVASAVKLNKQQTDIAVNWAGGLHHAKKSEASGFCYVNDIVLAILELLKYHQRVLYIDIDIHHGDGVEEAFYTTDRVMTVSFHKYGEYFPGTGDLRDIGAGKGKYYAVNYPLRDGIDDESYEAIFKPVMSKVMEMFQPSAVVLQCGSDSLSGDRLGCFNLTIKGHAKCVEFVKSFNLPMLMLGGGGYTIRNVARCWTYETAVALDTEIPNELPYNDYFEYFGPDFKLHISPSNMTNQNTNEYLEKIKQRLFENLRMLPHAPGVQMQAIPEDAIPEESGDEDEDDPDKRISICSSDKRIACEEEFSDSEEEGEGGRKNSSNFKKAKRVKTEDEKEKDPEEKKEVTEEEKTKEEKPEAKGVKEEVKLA

| Structure (SMILES) | IC50 (Human HDAC6) [nM] | IC50 (Human HDAC1) [nM] | fold induction at 10 µM (Nrf2) | fold induction at 10 µM (HIF-1α) | Nrf2 fold activation (Nrf2) [fold] | HIF-1α fold activation (HIF-1α) [fold] |
| --- | --- | --- | --- | --- | --- | --- |
| O=C(NO)c1ccc(CN2CCc3cc(Cl)ccc32)cc1F [II-ING-51, 4-((5-Chloroindolin-1-yl)methyl)-2-fluoro-N-hydroxybenzamide] | 40.2 |  | 1.6 | 7.2 |  |  |
| O=C(NO)c1ccc(CN2CCc3cc(F)c(Cl)cc32)cc1 [II-ING-56, 4-((6-Chloro-5-fluoroindolin-1-yl)methyl)-N-hydroxybenzamide] | 4.6 | 7820 | 5.5 | 7.8 |  |  |
| O=C(NO)c1ccc(CN2CCc3cc([N+](=O)[O-])ccc32)cc1 [II-ING-57, N-Hydroxy-4-((5-nitroindolin-1-yl)methyl)benzamide] | 1.4 | 1970 | 6.6 | 3.9 |  |  |
| O=C(NO)c1ccc(CN2CC3(CC3)c3cc(F)ccc32)cc1 [II-ING-68, 4-((5′-Fluorospiro[cyclopropane-1,3′-indolin]-1′-yl)methyl)-N-hydroxybenzamide] | 8.2 | 4700 | 6.2 | 5.8 |  |  |
| O=C(NO)c1cccc(CN2C(=O)C(F)(F)c3ccccc32)c1 [II-ING-100, 3-((3,3-Difluoro-2-oxoindolin-1-yl)methyl)-N-hydroxybenzamide] | 5560 | ≥ 30000 | 1.5 | 1 |  |  |
| C[N+]1(C)CCC2(CC1)C(=O)N(Cc1ccc(C(=O)NO)cc1)c1ccccc12 [II-ING-109, 1-(4-(Hydroxycarbamoyl)benzyl)-1′,1′-dimethyl-2-oxospiro[indoline-3,4′-piperidin]-1′-ium] | 18 | 19700 |  |  | 1.5 | 1.0 |
| C[N+]1(C)CCC2(CC1)C(=O)N(Cc1ccc(C(=O)NO)cc1)c1ccccc12 [II-ING-118] | 5.8 | 7880 | 2 | 1.3 |  |  |

Now from value to compound, other results behind:

| IC50 (Human HDAC6) [nM] | IC50 (Human HDAC1) [nM] | Structure (SMILES) | fold induction at 10 µM (Nrf2) | fold induction at 10 µM (HIF-1α) | Nrf2 fold activation (Nrf2) [fold] | HIF-1α fold activation (HIF-1α) [fold] |
| --- | --- | --- | --- | --- | --- | --- |
| 25.2 | 1850 | O=C(NO)c1ccc(CN2CCc3ccc(OCc4ccccc4)cc32)cc1 [II-ING-61, 4-((6-(Benzyloxy)indolin-1-yl)methyl)-N-hydroxybenzamide] | 2.2 | 7 |  |  |
| 24.5 | 18700 | CC1(C)CN(Cc2ccc(C(=O)NO)cc2)c2ccccc21 [II-ING-65, 4-((3,3-Dimethylindolin-1-yl)methyl)-N-hydroxybenzamide] | 1.8 | 2.8 |  |  |
| 2.7 | 1500 | Cn1c(NCc2ccc(C(=O)NO)cc2)nc2cc(Cl)ccc21 [II-ING-85, 4-(((5-chloro-1-methyl-1H-benzo[d]imidazol-2-yl)amino)methyl)-N-hydroxybenzamide] | 1.3 | 1.1 |  |  |
| 13 | 3230 | O=C(NO)c1ccc(CNc2nc3ccccc3n2-c2ccccc2)cc1 [II-ING-87, N-hydroxy-4-(((1-phenyl-1H-benzo[d]imidazol-2-yl)amino)methyl)benzamide] | 1.2 | 1 |  |  |
| 5.1 | 7880 | CC1(C)C(=O)N(Cc2ccc(C(=O)NO)cc2)c2ccccc21 [II-ING-101, 4-((3,3-Dimethyl-2-oxoindolin-1-yl)methyl)-N-hydroxybenzamide] | 3.4 | 1 |  |  |
